Assay results reported in ChEMBL document CHEMBL1125118, “Penta- and hexadienoic acid derivatives: a novel series of 5-lipoxygenase inhibitors” (J Med Chem, 1990).

Key:
[1] = biological target: T1, Cyclooxygenase (Rattus norvegicus, UniProt P35355+Q63921); experiment: In vitro for prostaglandin G/H synthase inhibitory activity against rat basophil leukemia type 1 cell homogenates, by measuring the radioactivity of [14C]-PGD2
T1 sequence (P35355 whole entry): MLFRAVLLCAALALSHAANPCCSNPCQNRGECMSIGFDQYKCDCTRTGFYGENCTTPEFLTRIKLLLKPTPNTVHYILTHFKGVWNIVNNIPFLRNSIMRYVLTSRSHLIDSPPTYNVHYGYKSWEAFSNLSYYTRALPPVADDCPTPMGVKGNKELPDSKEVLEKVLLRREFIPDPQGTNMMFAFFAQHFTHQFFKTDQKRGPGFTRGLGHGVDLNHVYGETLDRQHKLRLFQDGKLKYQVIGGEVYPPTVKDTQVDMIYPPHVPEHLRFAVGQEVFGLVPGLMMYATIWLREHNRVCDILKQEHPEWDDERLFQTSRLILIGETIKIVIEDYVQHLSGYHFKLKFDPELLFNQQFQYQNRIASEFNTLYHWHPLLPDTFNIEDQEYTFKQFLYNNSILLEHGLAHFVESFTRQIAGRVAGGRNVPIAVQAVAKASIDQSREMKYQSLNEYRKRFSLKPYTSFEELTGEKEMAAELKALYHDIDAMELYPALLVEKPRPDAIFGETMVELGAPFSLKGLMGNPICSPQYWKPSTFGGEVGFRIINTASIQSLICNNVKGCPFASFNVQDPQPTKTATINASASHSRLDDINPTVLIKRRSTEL
T1 sequence (Q63921 whole entry): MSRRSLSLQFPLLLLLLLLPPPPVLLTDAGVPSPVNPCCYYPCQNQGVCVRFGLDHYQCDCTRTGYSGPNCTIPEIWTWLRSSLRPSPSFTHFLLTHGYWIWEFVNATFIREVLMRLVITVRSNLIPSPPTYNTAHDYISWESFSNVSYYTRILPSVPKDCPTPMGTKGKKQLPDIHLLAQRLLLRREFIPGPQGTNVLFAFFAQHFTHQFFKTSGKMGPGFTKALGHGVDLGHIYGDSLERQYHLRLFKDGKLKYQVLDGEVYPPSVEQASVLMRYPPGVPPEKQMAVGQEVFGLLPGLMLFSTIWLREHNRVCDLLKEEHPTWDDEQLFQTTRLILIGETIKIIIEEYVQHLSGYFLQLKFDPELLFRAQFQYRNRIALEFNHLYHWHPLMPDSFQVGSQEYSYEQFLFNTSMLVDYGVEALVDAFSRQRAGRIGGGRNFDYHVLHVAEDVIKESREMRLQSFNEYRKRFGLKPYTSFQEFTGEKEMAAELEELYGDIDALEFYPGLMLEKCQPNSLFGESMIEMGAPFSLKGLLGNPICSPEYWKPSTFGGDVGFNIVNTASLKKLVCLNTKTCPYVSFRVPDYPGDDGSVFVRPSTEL

[2] = tested on: Mus musculus; experiment: In vivo inhibition of ear oedema in mice following p.o. administration.; assay type: functional; settings: po
[3] = biological target: T2, Polyunsaturated fatty acid 5-lipoxygenase (Rattus norvegicus, UniProt P12527); experiment: Iin vitro inhibition of 5-lipoxygenase activity in rat basophil leukemia type 1(RBL1) cell homogenates, (reduction of [14C]-5-HETE formation)
T2 sequence (P12527 whole entry): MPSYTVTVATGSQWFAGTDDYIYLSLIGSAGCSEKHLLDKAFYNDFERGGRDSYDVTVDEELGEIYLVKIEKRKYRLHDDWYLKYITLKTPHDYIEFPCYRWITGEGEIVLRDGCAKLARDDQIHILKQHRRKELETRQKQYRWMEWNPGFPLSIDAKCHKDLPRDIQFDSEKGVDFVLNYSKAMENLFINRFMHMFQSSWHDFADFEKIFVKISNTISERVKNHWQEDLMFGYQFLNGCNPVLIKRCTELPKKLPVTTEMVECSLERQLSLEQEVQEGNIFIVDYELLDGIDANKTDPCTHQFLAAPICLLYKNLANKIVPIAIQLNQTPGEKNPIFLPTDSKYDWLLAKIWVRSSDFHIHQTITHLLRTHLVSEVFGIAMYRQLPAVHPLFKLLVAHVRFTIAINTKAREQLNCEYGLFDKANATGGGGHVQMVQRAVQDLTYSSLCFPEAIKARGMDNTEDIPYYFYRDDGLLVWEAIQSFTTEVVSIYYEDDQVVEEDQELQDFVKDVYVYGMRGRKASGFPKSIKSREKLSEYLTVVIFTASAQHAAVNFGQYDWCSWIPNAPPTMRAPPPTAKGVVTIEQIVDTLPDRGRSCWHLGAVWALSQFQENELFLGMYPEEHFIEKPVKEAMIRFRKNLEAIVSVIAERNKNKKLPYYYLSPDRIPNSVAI

[4] = biological target: T2, Polyunsaturated fatty acid 5-lipoxygenase; experiment: In vitro inhibition of 5-lipoxygenase in rat (peritoneal assay)
[5] = tested on: Mus musculus; experiment: In vivo inhibition of AA induced ear oedema in mice following topical administration.; assay type: functional
[6] = biological target: T2, Polyunsaturated fatty acid 5-lipoxygenase; experiment: In vitro inhibitory activity against 5-Lipoxygenase in rat by Peritoneal 5-lipoxygenase assay

Row | Structure (SMILES) | IC50 [1] | ED50 [2] | ED50 [5] | also measured
1 | CCO/C(O)=C(/C=CC(=O)C(=O)c1ccccc1)Sc1ccccc1 | 12 µM | > 50 mg/kg | >2 mg ear-1 | IC50 [3]: 2 µM; IC50 [4]: 3 µM
2 | CCOC(=O)C(=CC=C(C(=O)OCC)N(C)C)Sc1ccccc1 |  |  | >2 mg ear-1 | 
3 | CCOC(=O)C(=CC=C(SC)C(=O)c1ccccc1)N(C)C | > 50 µM |  |  | IC50 [3]: > 50 µM; IC50 [6]: > 50 µM
4 | CC(C)(C)c1cc(/C=C2\CCOC2=O)cc(C(C)(C)C)c1O |  | 100 mg/kg | 0.3 mg ear-1 | 
5 | O=C(O)C(O)=CC=Cc1ccccc1 |  |  | >5 mg ear-1 | 
6 | CCOC(=O)C(=O)C=C/C(Sc1ccccc1)=C(\O)c1ccccc1 |  |  | >2 mg ear-1 | 
7 | CCO/C(O)=C(/C=CC=O)Sc1ccccc1 |  |  | 2 mg ear-1 | 
8 | CCSC(=CC=C(O)C(=O)O)C(=O)O |  |  | >0.5 mg ear-1 | 
9 | CCOC(=O)C(=O)C=C/C(SCc1ccccc1)=C(\O)OCC |  |  | >2 mg ear-1 | 
10 | CCOC(=O)C(=O)C=C/C(=C(\O)OCC)c1ccccc1 |  |  | >2 mg ear-1 | 
11 | CCOC(=O)C(=O)C=C/C(O)=C(\O)OCC |  |  | >2 mg ear-1 | 
12 | CCOC(=O)C(=O)C=C/C(C(=O)c1ccccc1)=C(\O)OCC |  |  | >2 mg ear-1 | 
13 | NC1=NN(c2cccc(C(F)(F)F)c2)CC1 [BW-755C] | 6 µM | 75 mg/kg | 0.08 mg ear-1 | 
14 | CC1=NN(CCOc2ccc3ccccc3c2)C(=O)C1 [NAFAZATROM] |  | > 100 mg/kg | 2 mg ear-1 | 
15 | CC(Cc1ccc(O)c(O)c1)C(C)Cc1ccc(O)c(O)c1 (stereo not given) [NORDIHYDROGUAIARETIC ACID] | > 50 µM | > 100 mg/kg | 0.1 mg ear-1 | 
16 | O=c1c(O)c(-c2ccc(O)c(O)c2)oc2cc(O)cc(O)c12 [QUERCETIN] | > 50 µM | > 100 mg/kg | 1 mg ear-1 | 
